IC50 data for 31 compounds are collected here from ChEMBL document CHEMBL1135312, “N-Aroyl-L-phenylalanine derivatives as VCAM/VLA-4 antagonists” (Bioorg Med Chem Lett, 2002).

SMILES strings stand for the structures.

In general, IC50 refers to the concentration at which inhibition is half-maximal.

Assay [1] has as its target T1, Integrin alpha-4/beta-1 (Homo sapiens, UniProt P05556+P13612). Kind of assay: Inhibitory binding concentration against VCAM/VLA-4 in Ramos. In kind it is protein-complex assay.
In assay [2] the target is T1, Integrin alpha-4/beta-1. Kind of assay: Inhibitory binding concentration against VCAM/VLA-4 in ELISA. Format: protein-complex assay. (An ELISA detects its analyte on a solid surface through an enzyme-linked reagent.)

T1 sequence (P05556 whole entry): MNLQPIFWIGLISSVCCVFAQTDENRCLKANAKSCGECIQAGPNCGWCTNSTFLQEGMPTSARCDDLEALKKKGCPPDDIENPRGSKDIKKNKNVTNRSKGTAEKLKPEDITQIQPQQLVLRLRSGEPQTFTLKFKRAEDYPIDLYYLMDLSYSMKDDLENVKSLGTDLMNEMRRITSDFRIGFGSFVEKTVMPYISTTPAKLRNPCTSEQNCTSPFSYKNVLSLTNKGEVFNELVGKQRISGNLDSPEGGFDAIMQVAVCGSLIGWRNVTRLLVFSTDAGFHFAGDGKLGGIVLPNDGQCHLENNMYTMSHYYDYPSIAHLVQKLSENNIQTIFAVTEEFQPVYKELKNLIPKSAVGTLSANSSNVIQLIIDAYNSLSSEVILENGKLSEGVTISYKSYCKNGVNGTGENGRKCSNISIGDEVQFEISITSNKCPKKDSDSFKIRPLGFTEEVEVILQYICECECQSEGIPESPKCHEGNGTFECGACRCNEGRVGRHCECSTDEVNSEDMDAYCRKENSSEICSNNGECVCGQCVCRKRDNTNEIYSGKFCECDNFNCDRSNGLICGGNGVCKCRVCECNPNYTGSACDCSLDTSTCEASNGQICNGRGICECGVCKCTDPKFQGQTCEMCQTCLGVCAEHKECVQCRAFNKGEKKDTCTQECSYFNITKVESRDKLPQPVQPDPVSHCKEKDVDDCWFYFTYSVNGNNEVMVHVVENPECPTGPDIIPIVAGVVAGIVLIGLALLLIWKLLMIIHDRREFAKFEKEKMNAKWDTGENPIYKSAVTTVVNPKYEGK
T1 sequence (P13612 whole entry): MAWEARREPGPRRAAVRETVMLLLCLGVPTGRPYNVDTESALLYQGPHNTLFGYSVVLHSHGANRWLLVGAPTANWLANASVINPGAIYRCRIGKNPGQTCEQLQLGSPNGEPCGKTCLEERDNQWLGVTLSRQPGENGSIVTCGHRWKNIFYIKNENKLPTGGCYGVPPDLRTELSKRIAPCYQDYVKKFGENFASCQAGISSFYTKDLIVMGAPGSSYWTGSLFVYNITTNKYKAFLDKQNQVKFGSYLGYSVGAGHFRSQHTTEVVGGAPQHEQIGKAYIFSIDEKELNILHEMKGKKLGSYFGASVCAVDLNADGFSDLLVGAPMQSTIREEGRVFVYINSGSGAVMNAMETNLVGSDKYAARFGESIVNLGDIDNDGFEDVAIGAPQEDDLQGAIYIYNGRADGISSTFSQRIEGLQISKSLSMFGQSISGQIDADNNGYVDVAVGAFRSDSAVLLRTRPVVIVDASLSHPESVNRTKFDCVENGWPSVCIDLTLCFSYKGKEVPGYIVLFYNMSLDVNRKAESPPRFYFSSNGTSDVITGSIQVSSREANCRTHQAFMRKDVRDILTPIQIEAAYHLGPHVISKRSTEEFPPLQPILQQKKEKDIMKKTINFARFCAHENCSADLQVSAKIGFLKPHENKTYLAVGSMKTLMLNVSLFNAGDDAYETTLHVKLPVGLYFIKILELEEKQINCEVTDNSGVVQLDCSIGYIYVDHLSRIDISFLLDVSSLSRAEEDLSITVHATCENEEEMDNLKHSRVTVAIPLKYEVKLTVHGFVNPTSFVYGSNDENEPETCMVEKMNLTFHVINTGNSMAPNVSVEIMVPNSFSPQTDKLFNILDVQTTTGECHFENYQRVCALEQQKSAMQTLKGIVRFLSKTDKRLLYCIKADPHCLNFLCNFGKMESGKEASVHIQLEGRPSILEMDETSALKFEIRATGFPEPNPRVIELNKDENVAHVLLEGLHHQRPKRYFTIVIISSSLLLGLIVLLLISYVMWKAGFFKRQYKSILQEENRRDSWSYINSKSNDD

In the case of `Cc1cc(C(F)(F)F)c(C(=O)N[C@@H](Cc2ccc(NC(=O)c3c(Cl)cccc3Cl)cc2)C(=O)O)c(C)n1`, the IC50 at Integrin alpha-4/beta-1 [1] was 0.2 µM.
As to `CS(=O)(=O)c1ccccc1C(=O)N[C@@H](Cc1ccc(NC(=O)c2c(Cl)cccc2Cl)cc1)C(=O)O`, at Integrin alpha-4/beta-1 [1], the IC50 was determined as 0.16 µM.
On to `O=C(N[C@@H](Cc1ccc(NC(=O)c2c(Cl)cccc2Cl)cc1)C(=O)O)c1ccc(Br)cc1Cl`, for which the IC50 at Integrin alpha-4/beta-1 [1] is 1.3 µM. This IC50 lies about 8.1-fold higher than the previous one.
Take `Cc1ncccc1C(=O)N[C@@H](Cc1ccc(NC(=O)c2c(Cl)cccc2Cl)cc1)C(=O)O`: the IC50 on Integrin alpha-4/beta-1 [1] worked out at 0.18 µM; at Integrin alpha-4/beta-1 [2] it was 0.002 µM.
On the same counts, the results for `O=C(N[C@@H](Cc1ccc(NC(=O)c2c(Cl)cccc2Cl)cc1)C(=O)O)c1cc(C(F)(F)F)ccc1Cl` are 0.45 µM and 0.0088 µM.
Turning to `Cc1ccnc(C)c1C(=O)N[C@@H](Cc1ccc(NC(=O)c2c(Cl)cccc2Cl)cc1)C(=O)O`, the results for the IC50 on Integrin alpha-4/beta-1 [1] and on Integrin alpha-4/beta-1 [2] were 0.023 µM and 0.00089 µM, respectively.
For `Cc1nc(C(C)C)sc1C(=O)N[C@@H](Cc1ccc(NC(=O)c2c(Cl)cccc2Cl)cc1)C(=O)O` the same measures were 0.069 µM and 0.00056 µM.
On the same counts, the results for `CCCc1cccc(C)c1C(=O)N[C@@H](Cc1ccc(NC(=O)c2c(Cl)cccc2Cl)cc1)C(=O)O` are 0.017 µM and 0.00042 µM.
With `CC(C)c1cccc(C(C)C)c1C(=O)N[C@@H](Cc1ccc(NC(=O)c2c(Cl)cccc2Cl)cc1)C(=O)O`, the IC50 on Integrin alpha-4/beta-1 [1] turned out to be 0.46 µM.
Regarding `O=C(N[C@@H](Cc1ccc(NC(=O)c2c(Cl)cccc2Cl)cc1)C(=O)O)c1sccc1Br`, the half-maximal inhibitory concentration (IC50) on Integrin alpha-4/beta-1 [1] amounted to 0.89 µM; on Integrin alpha-4/beta-1 [2] it was 0.0015 µM.
For `Cc1cccc(C)c1C(=O)N[C@@H](Cc1ccc(NC(=O)c2c(Cl)cccc2Cl)cc1)C(=O)O` the same measures were 0.084 µM and 0.0013 µM.
`Cc1cccc(F)c1C(=O)N[C@@H](Cc1ccc(NC(=O)c2c(Cl)cccc2Cl)cc1)C(=O)O`: the results for the IC50 on Integrin alpha-4/beta-1 [1] and at Integrin alpha-4/beta-1 [2] were 0.085 µM and 0.00044 µM, respectively.
For `O=C(N[C@@H](Cc1ccc(NC(=O)c2c(Cl)cccc2Cl)cc1)C(=O)O)c1ccccc1C(F)(F)F` the same measures were 0.65 µM and 0.016 µM.
The compound `O=C(N[C@@H](Cc1ccc(NC(=O)c2c(Cl)cccc2Cl)cc1)C(=O)O)c1cccc(Cl)c1Cl` gave a 50% inhibitory concentration (IC50) at Integrin alpha-4/beta-1 [1] of 1.6 µM.
Consider `CSc1ccccc1C(=O)N[C@@H](Cc1ccc(NC(=O)c2c(Cl)cccc2Cl)cc1)C(=O)O`, for which the IC50 worked out at 0.1 µM at Integrin alpha-4/beta-1 [1] and 0.0004 µM at Integrin alpha-4/beta-1 [2].
On the same counts, the results for `O=C(N[C@@H](Cc1ccc(NC(=O)c2c(Cl)cccc2Cl)cc1)C(=O)O)c1ccccc1Br` are 0.045 µM and 0.00049 µM.
The compound `COc1ccc(C(=O)N[C@@H](Cc2ccc(NC(=O)c3c(Cl)cccc3Cl)cc2)C(=O)O)c(Cl)c1` yielded a half-maximal inhibitory concentration (IC50) at Integrin alpha-4/beta-1 [2] of 0.0019 µM.
For the compound `Cc1cccc(Cl)c1C(=O)N[C@@H](Cc1ccc(NC(=O)c2c(Cl)cccc2Cl)cc1)C(=O)O`, the IC50 came out at 0.012 µM on Integrin alpha-4/beta-1 [1] and 0.0003 µM on Integrin alpha-4/beta-1 [2].
The compound `O=C(Nc1ccc(C[C@H](NC(=O)c2c(F)cccc2C(F)(F)F)C(=O)O)cc1)c1c(Cl)cccc1Cl` returned an IC50 on Integrin alpha-4/beta-1 [2] of 0.0004 µM.
Consider `O=C(N[C@@H](Cc1ccc(NC(=O)c2c(Cl)cccc2Cl)cc1)C(=O)O)c1cncnc1C(F)(F)F`, for which the values for the IC50 at Integrin alpha-4/beta-1 [1] and at Integrin alpha-4/beta-1 [2] were 0.19 µM and 0.002 µM, respectively.
Take `Cc1noc(C)c1C(=O)N[C@@H](Cc1ccc(NC(=O)c2c(Cl)cccc2Cl)cc1)C(=O)O`: the IC50 was 0.58 µM on Integrin alpha-4/beta-1 [1] and 0.015 µM on Integrin alpha-4/beta-1 [2].
For `CC(=O)c1cccc(Cl)c1C(=O)N[C@@H](Cc1ccc(NC(=O)c2c(Cl)cccc2Cl)cc1)C(=O)O` the same measures were 0.049 µM and 0.0016 µM.
In the case of `CCc1cccc(C)c1C(=O)N[C@@H](Cc1ccc(NC(=O)c2c(Cl)cccc2Cl)cc1)C(=O)O`, the IC50 on Integrin alpha-4/beta-1 [2] turned out to be 0.0003 µM.
Turning to `CC(C)(C)c1ccccc1C(=O)N[C@@H](Cc1ccc(NC(=O)c2c(Cl)cccc2Cl)cc1)C(=O)O`, the IC50 turned out to be 0.074 µM on Integrin alpha-4/beta-1 [1] and 0.0019 µM at Integrin alpha-4/beta-1 [2].
On the same counts, the results for `Cc1nn(-c2ccccc2)nc1C(=O)N[C@@H](Cc1ccc(NC(=O)c2c(Cl)cccc2Cl)cc1)C(=O)O` are 1.44 µM and 0.025 µM.
With `COc1ccccc1C(=O)N[C@@H](Cc1ccc(NC(=O)c2c(Cl)cccc2Cl)cc1)C(=O)O`, at Integrin alpha-4/beta-1 [1], the IC50 is 6.8 µM. In other words, the single-digit micromolar range.
In turn, `COc1ccc(Br)c(C(=O)N[C@@H](Cc2ccc(NC(=O)c3c(Cl)cccc3Cl)cc2)C(=O)O)c1` showed an IC50 at Integrin alpha-4/beta-1 [1] of 0.019 µM. Against the preceding compound, the IC50 is about 360-fold lower.
On to `Cc1ccc(Cl)c(C(=O)N[C@@H](Cc2ccc(NC(=O)c3c(Cl)cccc3Cl)cc2)C(=O)O)c1`, for which the IC50 on Integrin alpha-4/beta-1 [1] was determined as 0.46 µM; on Integrin alpha-4/beta-1 [2] it was 0.011 µM.
`Cc1cccc(C(=O)N[C@@H](Cc2ccc(NC(=O)c3c(Cl)cccc3Cl)cc2)C(=O)O)c1Cl` returned an IC50 at Integrin alpha-4/beta-1 [1] of 1.3 µM.
With `O=C(N[C@@H](Cc1ccc(NC(=O)c2c(Cl)cccc2Cl)cc1)C(=O)O)c1c(F)cccc1F`, the IC50 amounted to 0.067 µM at Integrin alpha-4/beta-1 [1] and 0.0012 µM on Integrin alpha-4/beta-1 [2].
For the compound `CNc1ccccc1C(=O)N[C@@H](Cc1ccc(NC(=O)c2c(Cl)cccc2Cl)cc1)C(=O)O`, the IC50 on Integrin alpha-4/beta-1 [1] amounted to 1 µM.
